Measurements reported in a melting point compilation (Tetko et al.; mined from patent text by program, amines drawn as free bases though some values may be those of a salt).

Work on `CN(C)Cc1ccc(CSCCNC2=NS(=O)(=O)N=C2NO)o1` yielded a melting point of 203 to 205 °C.
Work on `Cc1cnnc2c1C(=O)CC(c1cc(Cl)ccc1F)C2` (configuration not stated) yielded a melting point of 124 to 125 °C.
In the case of `O=C1c2ccccc2COc2cc(Br)ccc21`, the melting point is reported as 110 to 112 °C.
`CCOC(=O)CN1CCN(c2cccc(C3=NC(C)(C)Cc4cc(OC)c5c(c43)CC(C)(C)O5)c2)S1(=O)=O` showed a melting point of 153 to 155 °C.
For `CC(C)c1ccc2c(c1)OC1(O)c3cccc(O)c3C(=O)C21O` (configuration not stated), the melting point was 205 to 207 °C.
`O=C1c2cc(Cl)c(Cl)cc2-c2cc(O)cc3cccc1c23` gave a melting point of 355 to 360 °C.
`CCN(Cc1cc(Br)ccc1OCc1ccccc1)c1ccc(-c2nnn[nH]2)cc1` gave a melting point of 206 to 208 °C.
Work on `CCOC(=O)c1cc2c(C=O)c(OC[C@H]3CO3)ccc2[nH]1` yielded a melting point of 152 to 154 °C.
`O=[N+]([O-])c1ccc(-c2cccs2)cc1` showed a melting point of 124 to 126 °C.
Compound `COc1cc(O)c(C(=O)C=Cc2ccccc2)c(OC)c1` has a melting point of 85.5 °C.
`CC(C)Oc1cc(CCC(=O)NS(C)(=O)=O)n(Cc2ccc(Cl)cc2Cl)n1` showed a melting point of 104 to 105 °C.
Work on `CCn1c(=O)c(C(=O)O)c(N)c2cccnc21` yielded a melting point of 245 to 248 °C.
`CC(C)c1ccc(-c2cnc(-c3cccc(C(=O)O)c3)s2)cc1` gave a melting point of 218 to 220 °C.
Compound `CCC(Cl)c1ccc(CCNS(=O)(=O)c2ccc(Cl)cc2)cc1` (configuration not stated) has a melting point of 90 to 91 °C.
`Cn1cc(-c2ccc3nc(NC(=O)c4ccc(C(C)(C)C)cc4)cn3n2)cn1` showed a melting point of 245 to 246 °C.
Work on `N#Cc1ccc(-c2cc(F)c(F)c(OC3SCC(O)C(O)C3O)c2)cn1` (configuration not stated) yielded a melting point of 173 °C.
`O=C1C2C(C(=O)N1c1ccccc1S)C1(Cl)C(Cl)=C(Cl)C2(Cl)C1(Cl)Cl` (configuration not stated) gave a melting point of 195 to 198 °C.
With `NC(CCC(=O)O)c1cccs1` (configuration not stated) the melting point was 148 to 156 °C.
For `Cc1cc(C)c(Nc2nc(Nc3ccc(C#N)cc3)ncc2N)c(C)c1`, the melting point was 224 to 225 °C.
Compound `CC(=O)Nc1ccccc1C(=O)N1CC2CC2(c2ccccc2)C1` (configuration not stated) has a melting point of 124 to 127 °C.
In the case of `Fc1ccc(-c2cc(C(F)(F)F)n3ncc(-c4ccncc4)c3n2)cc1Cl`, the melting point is reported as 265 °C.
Work on `NS(=O)(=O)c1cccc(NC(=O)c2cnn3c(C(F)(F)F)cc(-c4ccc(F)c(F)c4)nc23)c1` yielded a melting point of 275 °C.
With `O=S(=O)(Cc1noc(-c2ccccc2)n1)c1ccc(CCNCC(O)c2ccc(OC(F)(F)F)cc2)cc1` (configuration not stated) the melting point was 125 to 127 °C.
Compound `CN1C(=O)c2cscc2Nc2ccccc21` has a melting point of 195 to 198 °C.
For `CSC1=NC2=NC3=C(CSCC3=O)CN2N1`, the melting point was 295 to 297 °C.
For `COC(=O)c1ccc(Cl)c(C=O)c1SC`, the melting point was 66.5 to 68.1 °C.
With `CC(C)OC(=O)Cn1c(=O)n(C)c(=O)n(-c2cc(N=c3sc(=O)n4n3CCCCC4)c(F)cc2Cl)c1=O` the melting point was 95 to 106 °C.
Work on `CN(C)CCNc1ccc(-c2nn(CC(=O)O)c3ncccc23)cc1` yielded a melting point of 240 to 242 °C.
`Cc1[nH]c(C=O)c(C)c1CCCO` showed a melting point of 85 °C.
Compound `COC(=O)C(C)(C)Oc1ccc2c(=O)n(CC(C)C)c(CNC(=O)OC(C)(C)C)c(-c3ccccc3)c2c1` has a melting point of 207 to 209 °C.
`CCOC(=O)Nc1cc(OC2CCCC2)c(Cl)cc1F` showed a melting point of 92.8 to 97.8 °C.
In the case of `N#Cc1ccccc1C#CCOCCn1cnc2c(N)nc3ccccc3c21`, the melting point is reported as 180 to 183 °C.
With `Cc1ccc(S(=O)(=O)NC(=O)Nc2ccccc2)cc1` the melting point was 166 °C.
`CCCNC(=O)Cc1ccc2ccn(C3CCN(CCc4ccc(F)cc4)CC3)c2c1` showed a melting point of 131 to 132 °C.
In the case of `O=C1CSC(C(=O)O)Cc2cc3c(cc21)OCCO3` (configuration not stated), the melting point is reported as 208 to 209 °C.
`CCOC(=O)c1cccc2c1c(C(=O)C(=O)NC1=CC(=O)OC1)cn2Cc1ccc(Cl)cc1` showed a melting point of 242 to 244 °C.
In the case of `COc1ccc(C(=O)O)c(C)c1C`, the melting point is reported as 214 °C.
In the case of `Cc1cc(-c2c(-c3ccc(S(C)(=O)=O)cc3)cnn(-c3ccc(F)c(Cl)c3)c2=O)ccc1F`, the melting point is reported as 207 to 208 °C.
For `CCCNON=C(C)C1=CCCN(C)C1`, the melting point was 78 to 79 °C.
With `CC(=O)Nc1nc(CCc2ccc(CO)cc2)c(Cc2ccc(S(C)(=O)=O)cc2)s1` the melting point was 210 to 211 °C.
Compound `CC(=O)N=c1sc(C)cn1CC(O)c1cccs1` (configuration not stated) has a melting point of 106 to 107 °C.
Work on `CC1(OCc2ccccc2F)COC(C(C)(C)C)OC1` (configuration not stated) yielded a melting point of 50 to 52 °C.
With `N#Cc1cc(-c2nc3cncnc3s2)ccc1Sc1cccc(F)c1` the melting point was 189 to 190 °C.
For `c1csc(Nc2ccnc3cn[nH]c23)c1`, the melting point was 255 to 259 °C.
In the case of `CCCCNc1c(C(=O)OCC)c(C)nc(Cl)c1[N+](=O)[O-]`, the melting point is reported as 33 to 35 °C.
In the case of `CC1(C)OC(=S)Nc2ccc(-c3coc(C#N)c3)cc21`, the melting point is reported as 214 to 216 °C.
In the case of `CCCc1c(C(=O)O)c(C(F)F)nc(C(F)(F)F)c1C(=O)O`, the melting point is reported as 236 °C.
With `c1ccc2nc(Cn3ccnc3)ccc2c1` the melting point was 106 to 107 °C.
With `CC1C(=NO)CC2(O)C3Cc4ccc(O)c5c4C2(CCN3CC2CC2)C1O5` (configuration not stated) the melting point was 172 to 173 °C.
With `Nc1cc2[nH]c(=O)oc2cc1NC(=O)C(=O)N1CCC(Cc2ccccc2)CC1` the melting point was 296 °C.
`C[C@@H](OS(C)(=O)=O)C(=O)N1C(=O)N(C)C[C@H]1C(=O)OCc1ccccc1` showed a melting point of 98 to 102 °C.
Work on `OC(c1cn(C(c2ccccc2)(c2ccccc2)c2ccccc2)cn1)c1cc(Cl)cc2c1OCOC2` (configuration not stated) yielded a melting point of 233 to 235 °C.
`O=C1CCC2(CCC(=O)c3ccccc32)C(=O)N1` (configuration not stated) gave a melting point of 197 to 199 °C.
For `CCOC(=O)c1ccc(-c2n[nH]c3ccccc23)cc1`, the melting point was 133 to 135 °C.
`C#CCN1CCN(C2=Nc3cc(Cl)ccc3Nc3ccccc32)CC1` showed a melting point of 138 to 140 °C.
In the case of `Cc1cccc(-c2nnc(Nc3ccc(Br)c(Cl)c3)s2)c1`, the melting point is reported as 230 to 231 °C.
`CSCC[C@H](NC(=O)OCc1ccccc1)C(=O)[C@@H](C(N)c1ccccc1)[C@H](O)C(=O)N1C[C@@H](Cl)C[C@H]1C(=O)NC(C)(C)C` (some centres not stated) gave a melting point of 81 to 88 °C.
Work on `S=C(NCCCN1CCCC1)NCCCN(Cc1ccc(Cl)c(Cl)c1)c1ccc(Br)cn1` yielded a melting point of 122 to 124 °C.
`COc1cc2c(cc1OC)CN(CCCNS(=O)(=O)c1cc(Cl)c(F)cc1F)CC2` showed a melting point of 110 to 112 °C.
`O=[N+]([O-])c1cc(C(c2ccc(O)c([N+](=O)[O-])c2)(C(F)(F)F)C(F)(F)F)ccc1O` showed a melting point of 119 to 122 °C.
Work on `COC(=O)[C@H](c1ccccc1Cl)N1CCc2sc(OC(=O)c3cccnc3)cc2C1` yielded a melting point of 92 to 94 °C.
`COc1ccc2c(c1OC)C(=Cc1ccccc1)c1ccccc1-2` showed a melting point of 210 °C.
Compound `COc1cc(C(=O)Cl)ccc1S(=O)(=O)Cl` has a melting point of 86 to 88 °C.
In the case of `COC(=O)Nc1ccc(OCCn2ccnc2)cc1`, the melting point is reported as 152 to 153 °C.
Compound `CCOC(=O)c1cc(F)c(N2CCCC2)nc1Cl` has a melting point of 95 °C.
In the case of `O=[N+]([O-])c1ccccc1N1CCCc2ccccc21`, the melting point is reported as 69 to 71 °C.
Work on `CC(C)(C)CN(CC(O)C(Cc1ccccc1)NC(=O)C(CC(N)=O)NC(=O)NCc1ccccc1)C(=O)NC(C)(C)C` (configuration not stated) yielded a melting point of 177 to 178 °C.
For `CC(C)COC(=O)N1CCC(c2ccc3oc(-c4ccc(S(C)(=O)=O)cc4F)nc3c2)CC1`, the melting point was 169 to 173 °C.
For `COc1cc2c(cc1O)C(=O)CCCC2`, the melting point was 115 to 116 °C.
With `CNc1cccc(S(=O)(=O)NC(=O)Nc2nc(OC)cc(OC)n2)n1` the melting point was 166 to 168 °C.
With `CCc1cc([N+](=O)[O-])c(Cl)c([N+](=O)[O-])c1COC` the melting point was 81 to 82 °C.
In the case of `Cc1nc(N2C(=O)N(Cc3ccc(F)cc3)C[C@@H]2C)sc1C(N)=O`, the melting point is reported as 197 to 198 °C.
